Results reported in publication PMC8449129, “Single tracer-based protocol for broad-spectrum kinase profiling in live cells with NanoBRET” (STAR Protocols, 2021).

Tests used:
Experiment in all cases: cell-based
Set-up in all cases: NanoBRET live-cell target engagement; % occupancy from displacement of tracer K10 on NanoLuc-kinase fusions, mean n=3
Conditions in all cases: HEK293, read-out: % inhibition
[1] = biological target: CSNK1D (Homo sapiens, UniProt P48730)
Experimental: (§1) • 18. Prepare 10× test compounds in OptiMEM • a. Dilute the test compound to 1000× in DMSO (or the test compound solvent). […] Add 10μL per well of 10× test compound or 10μL of the DMSO control to the 96-well plates containing cells with 1× tracer. Mix on orbital shaker for 15 s at 900 rpm. • 20. Incubate the plate at 37°C + 5% CO2 incubator for 2hr. Allow plate to cool to RT for ∼15 min, then proceed to NanoBRET^TM Assay section below. • 21. Immediately before the BRET measurements, prepare 3× Complete NanoBRET^TM Nano-Glo® Substrate in OptiMEM without serum or phenol red. […] Mix gently by inverting 5–10 times in a conical tube. (The final concentration of Extracellular NanoLuc inhibitor in the 3× solution is 60 μM, for a working concentration of 20 μM.) • a. Note: 3× solutions should be used within 1.5 h after preparation. • 22. […] Incubate 2–3 min at RT. Following addition of NanoBRET^TM Nano-Glo® Substrate, measure donor emission (e.g., 450 nm) and acceptor emission (e.g., 610 nm or 630 nm) using a NanoBRET™-compatible luminometer. Fractional occupancy Quantitation • 2. Determine Fractional Occupancy with the following equation; % Occupancy = [1 – (X – Z)/( Y – Z)]∗100 • Where: • X = BRET in the presence of the test compound and tracer, • Y = BRET in the presence of the 100% BRET Control (Tracer + DMSO) • Z = BRET for the Zero BRET Control, e.g., • a. BRET from the NanoLuc Control Vector • b. BRET from Kinase/NanoLuc fusion + saturating dose of control test compound.

[2] = biological target: FER (Homo sapiens, UniProt P16591)
Experimental: as §1

[3] = biological target: GAK (Homo sapiens, UniProt O14976)
Experimental: as §1

[4] = biological target: IGF1R (Homo sapiens, UniProt P08069)
Experimental: as §1

[5] = biological target: LATS1 (Homo sapiens, UniProt O95835)
Experimental: as §1

[6] = biological target: LATS2 (Homo sapiens, UniProt Q9NRM7)
Experimental: as §1

[7] = biological target: LIMK1 (Homo sapiens, UniProt P53667)
Experimental: as §1

[8] = biological target: MAPK8 (Homo sapiens, UniProt P45983)
Experimental: as §1

[9] = biological target: MAST3 (Homo sapiens, UniProt O60307)
Experimental: as §1

[10] = biological target: MELK (Homo sapiens, UniProt Q14680)
Experimental: as §1

[11] = biological target: MYLK4 (Homo sapiens, UniProt Q86YV6)
Experimental: as §1

[12] = biological target: NEK1 (Homo sapiens, UniProt Q96PY6)
Experimental: as §1

[13] = biological target: NEK11 (Homo sapiens, UniProt Q8NG66)
Experimental: as §1

[14] = biological target: PRKAA2 (Homo sapiens, UniProt P54646)
Experimental: as §1

[15] = biological target: RIPK2 (Homo sapiens, UniProt O43353)
Experimental: as §1

[16] = biological target: RPS6KA4 (Homo sapiens, UniProt O75676)
Experimental: as §1

[17] = biological target: TLK2 (Homo sapiens, UniProt Q86UE8)
Experimental: as §1

[18] = biological target: TNK2 (Homo sapiens, UniProt Q07912)
Experimental: as §1

IGF1R, sequence (P08069 whole entry): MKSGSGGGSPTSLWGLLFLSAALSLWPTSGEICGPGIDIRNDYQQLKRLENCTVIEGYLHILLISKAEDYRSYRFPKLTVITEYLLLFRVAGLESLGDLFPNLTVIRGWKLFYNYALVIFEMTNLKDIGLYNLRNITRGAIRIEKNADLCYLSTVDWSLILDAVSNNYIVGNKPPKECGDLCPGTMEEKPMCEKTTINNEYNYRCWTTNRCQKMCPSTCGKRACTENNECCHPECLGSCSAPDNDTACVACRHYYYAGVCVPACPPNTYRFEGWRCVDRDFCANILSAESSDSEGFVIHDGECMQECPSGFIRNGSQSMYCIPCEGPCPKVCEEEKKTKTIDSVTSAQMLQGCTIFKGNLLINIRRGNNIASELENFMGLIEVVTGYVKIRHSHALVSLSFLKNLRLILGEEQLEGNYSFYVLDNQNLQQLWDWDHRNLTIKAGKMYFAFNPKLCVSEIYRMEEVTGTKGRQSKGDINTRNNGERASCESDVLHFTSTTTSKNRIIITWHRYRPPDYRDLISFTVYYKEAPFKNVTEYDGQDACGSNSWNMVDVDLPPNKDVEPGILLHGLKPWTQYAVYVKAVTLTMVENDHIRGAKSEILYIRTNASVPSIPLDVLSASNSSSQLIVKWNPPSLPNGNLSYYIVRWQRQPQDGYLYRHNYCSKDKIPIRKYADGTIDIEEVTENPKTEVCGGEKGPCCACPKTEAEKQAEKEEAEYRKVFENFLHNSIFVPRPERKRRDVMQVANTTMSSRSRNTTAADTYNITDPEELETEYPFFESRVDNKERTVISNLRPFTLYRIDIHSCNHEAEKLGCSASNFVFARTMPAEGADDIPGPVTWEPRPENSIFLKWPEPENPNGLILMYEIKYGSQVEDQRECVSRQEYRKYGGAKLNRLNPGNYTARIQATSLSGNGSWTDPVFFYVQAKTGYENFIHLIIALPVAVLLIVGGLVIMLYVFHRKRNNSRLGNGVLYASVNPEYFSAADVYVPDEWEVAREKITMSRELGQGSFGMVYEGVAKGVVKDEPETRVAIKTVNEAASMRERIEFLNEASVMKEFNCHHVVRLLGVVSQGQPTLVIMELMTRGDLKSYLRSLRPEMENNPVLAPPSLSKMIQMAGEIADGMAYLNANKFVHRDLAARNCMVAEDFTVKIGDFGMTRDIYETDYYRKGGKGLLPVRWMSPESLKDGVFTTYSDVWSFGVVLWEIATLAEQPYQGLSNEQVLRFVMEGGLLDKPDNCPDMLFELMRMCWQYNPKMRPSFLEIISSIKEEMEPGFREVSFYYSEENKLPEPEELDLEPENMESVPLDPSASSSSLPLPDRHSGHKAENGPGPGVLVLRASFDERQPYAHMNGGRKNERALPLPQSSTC
LATS1, sequence (O95835 whole entry): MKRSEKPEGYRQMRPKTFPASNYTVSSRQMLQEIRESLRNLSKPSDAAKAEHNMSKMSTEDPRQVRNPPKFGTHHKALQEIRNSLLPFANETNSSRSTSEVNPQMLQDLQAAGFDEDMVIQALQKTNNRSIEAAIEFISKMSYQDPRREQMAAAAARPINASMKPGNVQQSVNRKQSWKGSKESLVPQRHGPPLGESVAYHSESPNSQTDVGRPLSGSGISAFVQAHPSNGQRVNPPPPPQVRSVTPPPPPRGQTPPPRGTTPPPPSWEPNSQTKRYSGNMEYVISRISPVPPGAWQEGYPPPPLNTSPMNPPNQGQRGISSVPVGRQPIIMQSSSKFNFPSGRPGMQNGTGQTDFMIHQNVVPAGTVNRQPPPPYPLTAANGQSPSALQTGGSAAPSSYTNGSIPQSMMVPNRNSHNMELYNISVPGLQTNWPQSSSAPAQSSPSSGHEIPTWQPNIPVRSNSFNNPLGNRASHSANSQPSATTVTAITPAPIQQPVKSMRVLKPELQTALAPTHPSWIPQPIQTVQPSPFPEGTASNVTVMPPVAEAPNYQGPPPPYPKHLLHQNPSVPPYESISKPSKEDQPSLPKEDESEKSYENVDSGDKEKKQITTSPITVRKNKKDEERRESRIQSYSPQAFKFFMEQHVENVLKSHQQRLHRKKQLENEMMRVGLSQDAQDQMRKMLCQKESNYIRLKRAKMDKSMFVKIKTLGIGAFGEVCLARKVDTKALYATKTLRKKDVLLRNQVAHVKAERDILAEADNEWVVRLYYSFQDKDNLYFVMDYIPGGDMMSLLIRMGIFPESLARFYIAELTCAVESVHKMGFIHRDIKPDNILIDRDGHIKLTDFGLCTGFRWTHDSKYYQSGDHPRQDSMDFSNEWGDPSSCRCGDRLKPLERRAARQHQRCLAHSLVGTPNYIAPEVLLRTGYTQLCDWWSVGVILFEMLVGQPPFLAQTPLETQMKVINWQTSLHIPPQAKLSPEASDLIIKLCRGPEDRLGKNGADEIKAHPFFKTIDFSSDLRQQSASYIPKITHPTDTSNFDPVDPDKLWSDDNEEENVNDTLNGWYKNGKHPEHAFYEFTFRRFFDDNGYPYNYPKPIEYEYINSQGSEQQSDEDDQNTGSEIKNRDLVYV
CSNK1D, sequence (P48730 whole entry): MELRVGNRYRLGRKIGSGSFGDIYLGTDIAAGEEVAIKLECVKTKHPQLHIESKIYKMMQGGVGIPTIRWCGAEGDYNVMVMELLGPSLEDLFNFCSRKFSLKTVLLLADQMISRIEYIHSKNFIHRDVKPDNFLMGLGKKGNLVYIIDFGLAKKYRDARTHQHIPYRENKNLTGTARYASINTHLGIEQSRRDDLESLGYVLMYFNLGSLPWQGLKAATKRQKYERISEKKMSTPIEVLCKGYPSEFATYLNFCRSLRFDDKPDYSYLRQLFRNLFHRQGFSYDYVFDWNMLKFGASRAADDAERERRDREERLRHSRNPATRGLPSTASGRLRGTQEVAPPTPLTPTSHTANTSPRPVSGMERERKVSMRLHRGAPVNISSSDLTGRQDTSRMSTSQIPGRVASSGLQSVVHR
MAST3, sequence (O60307 whole entry): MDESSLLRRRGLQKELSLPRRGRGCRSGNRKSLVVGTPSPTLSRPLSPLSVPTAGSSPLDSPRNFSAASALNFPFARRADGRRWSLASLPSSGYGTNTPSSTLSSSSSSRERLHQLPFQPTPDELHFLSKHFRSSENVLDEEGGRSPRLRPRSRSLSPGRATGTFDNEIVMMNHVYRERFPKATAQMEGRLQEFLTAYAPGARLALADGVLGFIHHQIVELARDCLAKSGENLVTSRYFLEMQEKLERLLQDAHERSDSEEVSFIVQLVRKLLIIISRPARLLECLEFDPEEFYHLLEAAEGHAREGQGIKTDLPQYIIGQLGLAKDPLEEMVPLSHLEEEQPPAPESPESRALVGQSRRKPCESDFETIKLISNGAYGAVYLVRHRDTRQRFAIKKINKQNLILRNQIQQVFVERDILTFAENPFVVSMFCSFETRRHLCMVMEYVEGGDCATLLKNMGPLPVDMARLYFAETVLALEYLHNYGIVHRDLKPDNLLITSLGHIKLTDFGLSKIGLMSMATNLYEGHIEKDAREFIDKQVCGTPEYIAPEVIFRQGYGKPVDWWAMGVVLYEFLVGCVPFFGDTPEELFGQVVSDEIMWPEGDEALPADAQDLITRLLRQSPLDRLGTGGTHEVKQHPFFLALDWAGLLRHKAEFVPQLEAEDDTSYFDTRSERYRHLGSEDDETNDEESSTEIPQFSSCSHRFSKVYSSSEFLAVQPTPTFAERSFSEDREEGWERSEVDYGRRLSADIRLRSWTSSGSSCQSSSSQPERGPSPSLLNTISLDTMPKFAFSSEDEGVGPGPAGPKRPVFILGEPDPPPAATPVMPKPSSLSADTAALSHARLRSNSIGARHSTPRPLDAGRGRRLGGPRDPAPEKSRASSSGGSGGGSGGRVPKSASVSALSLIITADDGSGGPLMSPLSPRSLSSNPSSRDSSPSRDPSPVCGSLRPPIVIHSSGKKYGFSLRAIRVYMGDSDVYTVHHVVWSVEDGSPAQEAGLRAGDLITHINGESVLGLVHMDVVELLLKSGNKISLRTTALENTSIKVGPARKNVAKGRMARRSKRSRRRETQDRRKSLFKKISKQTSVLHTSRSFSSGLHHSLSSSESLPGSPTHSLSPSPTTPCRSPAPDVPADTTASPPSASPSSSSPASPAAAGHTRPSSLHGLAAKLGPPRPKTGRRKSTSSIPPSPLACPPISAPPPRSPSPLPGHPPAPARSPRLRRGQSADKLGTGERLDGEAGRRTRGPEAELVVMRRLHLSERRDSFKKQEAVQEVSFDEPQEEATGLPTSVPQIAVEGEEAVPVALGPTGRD
LIMK1, sequence (P53667 whole entry): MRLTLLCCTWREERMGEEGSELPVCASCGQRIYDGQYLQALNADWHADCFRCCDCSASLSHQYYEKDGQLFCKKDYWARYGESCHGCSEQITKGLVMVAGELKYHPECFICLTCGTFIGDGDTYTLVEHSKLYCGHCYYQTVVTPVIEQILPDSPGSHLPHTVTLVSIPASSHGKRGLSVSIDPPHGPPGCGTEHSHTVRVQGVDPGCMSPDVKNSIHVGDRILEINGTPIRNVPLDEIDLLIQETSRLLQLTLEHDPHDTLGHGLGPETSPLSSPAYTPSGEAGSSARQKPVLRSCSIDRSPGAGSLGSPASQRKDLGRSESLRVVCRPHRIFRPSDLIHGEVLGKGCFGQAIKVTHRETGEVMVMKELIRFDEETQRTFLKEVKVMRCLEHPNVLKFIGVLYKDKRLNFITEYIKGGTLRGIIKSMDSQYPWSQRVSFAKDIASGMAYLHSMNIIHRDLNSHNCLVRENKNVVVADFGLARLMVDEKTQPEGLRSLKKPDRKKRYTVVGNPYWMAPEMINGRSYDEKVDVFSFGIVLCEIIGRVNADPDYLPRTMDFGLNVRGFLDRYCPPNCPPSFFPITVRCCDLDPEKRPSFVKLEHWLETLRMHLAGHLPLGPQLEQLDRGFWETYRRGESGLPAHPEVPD

## C[C@@H](Oc1cc(-c2cnn(C3CCNCC3)c2)cnc1N)c1c(Cl)ccc(F)c1Cl [crizotinib]
[1]
  inhibition at 1 µM: -4%
[2]
  inhibition at 1 µM: 16%
[3]
  inhibition at 1 µM: -14%
[4]
  inhibition at 1 µM: 18%
[5]
  inhibition at 1 µM: -10%
[6]
  inhibition at 1 µM: -10%
[7]
  inhibition at 1 µM: 29%
[8]
  inhibition at 1 µM: -16%
[9]
  inhibition at 1 µM: -1%
[10]
  inhibition at 1 µM: -2%
[11]
  inhibition at 1 µM: -8%
[12]
  inhibition at 1 µM: 3%
[13]
  inhibition at 1 µM: 7%
[14]
  inhibition at 1 µM: -6%
[15]
  inhibition at 1 µM: 43%
[16]
  inhibition at 1 µM: -11%
[17]
  inhibition at 1 µM: 0%
[18]
  inhibition at 1 µM: 13%
